Experimental data: ChEMBL document CHEMBL4334442, “Effects of Acetylshikonin on the Infection and Replication of Coxsackievirus A16 in Vitro and in Vivo” (J Nat Prod, 2019)
Calls of active or inactive are those of the source. The calls are words filed in the database; no cut-off is given here.

How the values were obtained:
[1] = system: Coxsackievirus A16; assay: (§1) Antiviral activity against Coxsackievirus A16 TA271 infected in RD cells at replication stage assessed as cell fragmentation at 0.08 uM/L 1 hr post-infection viral inoculum was removed and cells incubated with medium containing compound and measured after 5 hrs by inverted microscopic analysis; format: functional, cell-based
[2] = system: Coxsackievirus A16; assay: Antiviral activity against Coxsackievirus A16 TA271 infected in ICR mouse assessed as reduction in virus-induced IFN-gamma level at 0.08 uM/L preincubated with viral suspension for 2 hrs followed by intramuscular administration after 3 days post infection by ELISA; format: functional
[3] = Selectivity index, ratio of CC50 for cytotoxicity against human RD cells to EC50 for antiviral activity against Coxsackievirus A16 TA271 infected in human RD cells; format: toxicity, cell-based; details: read-out: Ratio CC50/EC50
[4] = system: Coxsackievirus A16; assay: Antiviral activity against Coxsackievirus A16 TA271 infected in RD cells at preinfection stage assessed as increase in intracytoplasmic granules at 0.08 uM/L preincubated with cells for 3 hrs followed by viral infection and measured after 1 hr by inverted microscopic analysis; format: functional, cell-based
[5] = system: Coxsackievirus A16; assay: Antiviral activity against Coxsackievirus A16 TA271 infected in ICR mouse assessed as reduction in viral load in lung at 2 mg/kg, im after 3 to 5 days post infection by RT-PCR analysis; format: functional, organism-based
[6] = system: Coxsackievirus A16; assay: Antiviral activity against Coxsackievirus A16 TA271 infected in ICR mouse assessed as reduction in viral load in spinal muscle at 2 mg/kg, im after 3 to 5 days post infection by RT-PCR analysis; format: functional, organism-based
[7] = Cytotoxicity against human RD cells assessed as cell survival at <5 uM after 24 hrs by CCK8 assay relative to control; format: cell-based; details: read-out: Activity
[8] = system: Coxsackievirus A16; assay: Antiviral activity against Coxsackievirus A16 TA271 infected in ICR mouse assessed as effect on virus-induced IL-6 level at 2 mg/kg, im after 3 days post infection by ELISA; format: functional, organism-based
[9] = system: Coxsackievirus A16; assay: Antiviral activity against Coxsackievirus A16 TA271 infected in ICR mouse assessed as reduction in lesions in lung at 2 mg/kg, im after 5 days post infection by H and E staining based histopathological analysis; format: functional, organism-based
[10] = system: Coxsackievirus A16; assay: Antiviral activity against Coxsackievirus A16 TA271 infected in RD cells at preinfection stage assessed as cell detachment at 0.08 uM/L preincubated with cells for 3 hrs followed by viral infection and measured after 1 hr by inverted microscopic analysis; format: functional, cell-based
[11] = system: Coxsackievirus A16; assay: Antiviral activity against Coxsackievirus A16 TA271 infected in RD cells assessed as effect on viral load at replication stage at 0.08 uM/L preincubated for 1 hr followed by replacement of medium containing compound for 5 hrs and measured after 48 hrs post infection by RT-PCR analysis; format: functional, cell-based
[12] = system: Coxsackievirus A16; assay: Antiviral activity against Coxsackievirus A16 TA271 infected in ICR mouse assessed as effect on virus-induced IL-6 level at 0.08 uM/L preincubated with viral suspension for 2 hrs followed by intramuscular administration after 3 days post infection by ELISA; format: functional
[13] = system: Coxsackievirus A16; assay: as §1, with “appearance of rounded cells” for “cell fragmentation”; format: functional, cell-based
[14] = system: Coxsackievirus A16; assay: Antiviral activity against Coxsackievirus A16 TA271 infected in ICR mouse assessed as mild alveolar fibrosis in lung at 2 mg/kg, im after 5 days post infection by H and E staining based histopathological analysis; format: functional, organism-based
[15] = system: Coxsackievirus A16; assay: Antiviral activity against Coxsackievirus A16 TA271 infected in ICR mouse assessed as reduction in viral load in hind limb muscle at 2 mg/kg, im after 3 to 5 days post infection by RT-PCR analysis; format: functional, organism-based
[16] = system: Coxsackievirus A16; assay: Antiviral activity against Coxsackievirus A16 TA271 infected in ICR mouse assessed as reduction in lesions in hind limb muscle at 2 mg/kg, im after 5 days post infection by H and E staining based histopathological analysis; format: functional, organism-based
[17] = system: Coxsackievirus A16; assay: Antiviral activity against Coxsackievirus A16 TA271 infected in RD cells assessed as effect on viral load at preinfection stage at 0.08 uM/L preincubated with cells for 3 hrs followed by viral infection for 1 hr and measured after 48 hrs post infection in fresh medium by RT-PCR analysis; format: functional, cell-based
[18] = system: Coxsackievirus A16; assay: (§2) Antiviral activity against Coxsackievirus A16 TA271 infected in RD cells at release stage assessed as appearance of cell shrinkage at 0.08 uM/L preincubated with cells for 1 hr followed by replacement of fresh medium containing compounds after 5 hrs post infection and further incubated for 16 hrs post infection by inverted microscopic analysis; format: functional, cell-based
[19] = system: Coxsackievirus A16; assay: Antiviral activity against Coxsackievirus A16 TA271 infected in RD cells assessed as inhibition of viral adsorption/viral entry by measuring increase in cell viability at 0.08 uM/L after 1 hr by inverted microscopic analysis; format: functional, cell-based
[20] = system: Coxsackievirus A16; assay: Antiviral activity against Coxsackievirus A16 TA271 infected in RD cells at preinfection stage assessed as appearance of rounded cells at 0.08 uM/L preincubated with cells for 3 hrs followed by viral infection and measured after 1 hr by inverted microscopic analysis; format: functional, cell-based
[21] = system: Coxsackievirus A16; assay: Antiviral activity against Coxsackievirus A16 TA271 infected in ICR mouse assessed as reduction in muscle fiber breakage in heart at 2 mg/kg, im after 5 days post infection by H and E staining based histopathological analysis; format: functional, organism-based
[22] = system: Coxsackievirus A16; assay: Antiviral activity against Coxsackievirus A16 TA271 infected in ICR mouse assessed as reduction in viral load in heart at 2 mg/kg, im after 3 to 5 days post infection by RT-PCR analysis; format: functional, organism-based
[23] = system: Coxsackievirus A16; assay: as §2, with “as” for “as appearance of”, “fragmentation” for “shrinkage”; format: functional, cell-based
[24] = system: Coxsackievirus A16; assay: Antiviral activity against Coxsackievirus A16 TA271 infected in RD cells assessed as inhibition of viral adsorption/entry by measuring reduction in viral load at 0.08 uM/L incubated for 1 hr and measured after 48 hrs post infection by RT-PCR analysis; format: functional, cell-based
[25] = system: Coxsackievirus A16; assay: Antiviral activity against Coxsackievirus A16 TA271 infected in ICR mouse assessed as mouse survival at 2 mg/kg, im measured on day 6 post infection relative to control; format: functional; details: Enterovirus A, 144 h
[26] = system: Coxsackievirus A16; assay: Antiviral activity against Coxsackievirus A16 TA271 infected in ICR mouse assessed as mild alveolar wall thickening in heart at 2 mg/kg, im after 5 days post infection by H and E staining based histopathological analysis; format: functional, organism-based
[27] = system: Mus musculus; assay: Effect on IFN-gamma level in ICR mouse at 2 mg/kg, administered intramuscularly by ELISA; format: functional, organism-based
[28] = system: Coxsackievirus A16; assay: Antiviral activity against Coxsackievirus A16 TA271 infected in ICR mouse assessed as increase in inflammatory cell proliferation in spinal muscles at 0.08 uM/L preincubated with viral suspension for 2 hrs followed by intramuscular administration after 5 days post infection by H and E staining based histopathological analysis; format: functional
[29] = system: Coxsackievirus A16; assay: Antiviral activity against Coxsackievirus A16 TA271 infected in human RD cells assessed as inhibition of virus-induced cytopathic effect at 0.08 uM/L preincubated with viral suspension for 2 hrs followed by cell addition and measured after 24 hrs by CCK-8 assay relative to control; format: functional; details: Enterovirus A
[30] = system: Coxsackievirus A16; assay: Antiviral activity against Coxsackievirus A16 16038 infected in RD cells assessed as reduction in viral genome copies at 0.08 uM/L preincubated with viral suspension for 2 hrs followed by cell addition and measured at 24 hrs post infection by RT-PCR analysis; format: functional, cell-based

## CC(=O)OC(CC=C(C)C)C1=CC(=O)c2c(O)ccc(O)c2C1=O (stereo not given)
[1]
  Activity: inactive
[2]
  Activity: Active
[3]
  selectivity ratio: 235
[4]
  Activity: inactive
[5]
  Activity: Active
[6]
  Activity: Active
[7]
  viability at 24 h: > 90%
[8]
  Activity: inactive
[9]
  Activity: Active
[10]
  Activity: inactive
[11]
  Activity: inactive
[12]
  Activity: inactive
[13]
  Activity: inactive
[14]
  Activity: Active
[15]
  Activity: Active
[16]
  Activity: Active
[17]
  Activity: inactive
[18]
  Activity: inactive
[19]
  inhibition: Active
[20]
  Activity: inactive
[21]
  Activity: Active
[22]
  Activity: Active
[23]
  Activity: inactive
[24]
  Activity: Active
[25]
  survival at 2 mg/kg: 50%
[26]
  Activity: Active
[27]
  Activity: inactive
[28]
  Activity: Active
[29]
  inhibition at 0.08 µM: 80%
[30]
  Activity: Active
